Patent US4060682A, “Process for the synthetic production of 3-deoxy derivative of an aminoglycosidic antibiotic” (priority 1974, dated 1977)
≈ marks a conversion by molar mass, not a printed value.

Tests used:
Assay in all cases: Minimum inhibitory concentration, standard serial dilution method, nutrient agar
Type in all cases: cell-based
[1] = system: Pseudomonas aeruginosa GN315; settings: GN315, 18 h, read-out: Minimum Inhibitory Concentration
Excerpt: (§1) 3'-Deoxyneamine, 3'-deoxy-6'-N-methylneamine, 3'-deoxyribostamycin, 3'-deoxy-6'-N-methylribostamycin, 3'-deoxykanamycin B, 3'-deoxy-6'-N-methylkanamycin B and 3'-deoxyparomamine which are produced by the process of this invention have been confirmed to be identical to their authentic samples, respectively, by making comparison between their n.m.r. spectra (in D2 O), mass spectra of their derivatives, thin layer chromatography on silica gel (developed with 4:5:2:5 n-butanolethanol-chloroform-17% aqueous ammonia) and antibacterial spectra. […] These 3'-deoxy derivatives are of low toxicity similarly to their parent substances and are useful for the therapeutic treatment of infections by gram-positive and gram-negative bacteria. 3'-Deoxyparomamine is useful as an intermediate for synthesis of any valuable derivative of aminoglycosidic antibiotics. The minimum inhibitory concentrations (mcg/ml) of these 3'-deoxy derivatives against various microorganisms were determined according to a standard serial dilution method using nutrient agar incubation medium at 37° C, the estimation being effected after 18 hours incubation.

[2] = system: Escherichia coli K12 W677; settings: K12W677, 37° C, 18 hours
Excerpt: as §1

[3] = system: Escherichia coli K12 LA290 R55; settings: K12LA290R55, 18 h, read-out: Minimum Inhibitory Concentration
Excerpt: as §1

[4] = system: Escherichia coli K12 ML1410; settings: K12ML1410, 18 h, read-out: Minimum Inhibitory Concentration
Excerpt: as §1

Escherichia coli K12 = settings: K12, 18 h, read-out: Minimum Inhibitory Concentration
Excerpt: as §1

[5] = system: Pseudomonas aeruginosa No.12; settings: NO.12, 18 h, read-out: Minimum Inhibitory Concentration
Excerpt: as §1

[6] = system: Escherichia coli K12 ML1629; settings: K12ML1629, 18 h, read-out: Minimum Inhibitory Concentration
Excerpt: as §1

[7] = system: Staphylococcus aureus FDA 209P; settings: FDA209P, 18 h, read-out: Minimum Inhibitory Concentration
Excerpt: as §1

[8] = system: Pseudomonas aeruginosa A3; settings: A3, 18 h, read-out: Minimum Inhibitory Concentration
Excerpt: as §1

[9] = system: Escherichia coli K12 JR66/W677; settings: K12JR66/W677, 18 h, read-out: Minimum Inhibitory Concentration
Excerpt: as §1

Row | Compound | MIC [1] [mg/L] | MIC [2] [mg/L] | MIC [3] [mg/L] | MIC [4] [mg/L] | MIC (Escherichia coli K12) [mg/L] | MIC [5] [mg/L] | MIC [6] [mg/L] | MIC [7] [mg/L] | MIC [8] [mg/L] | MIC [9] [mg/L]
1 | CNC[C@H]1O[C@H](O[C@H]2[C@H](O)[C@@H](O[C@H]3O[C@H](CO)[C@@H](O)[C@H](N)[C@H]3O)[C@H](N)C[C@@H]2N)[C@H](N)C[C@@H]1O [3'-Deoxy-6'-N-methylkanamycin B, 3'-deoxy-6'-N-methylkanamycin B] | 6.25 (≈ 13 µM) | 1.56 (≈ 3.24 µM) | 50 (≈ 104 µM) | 1.56 (≈ 3.24 µM) | 0.78 (≈ 1.62 µM) | 0.78 (≈ 1.62 µM) | 1.56 (≈ 3.24 µM) | 1.56 (≈ 3.24 µM) | 0.78 (≈ 1.62 µM) | 50 (≈ 104 µM)
2 | NC[C@H]1O[C@H](O[C@H]2[C@H](O)[C@@H](O[C@H]3O[C@H](CO)[C@@H](O)[C@H](N)[C@H]3O)[C@H](N)C[C@@H]2N)[C@H](N)C[C@@H]1O [3'-Deoxykanamycin B, 3'-deoxykanamycin B] | 100 (≈ 214 µM) | 1.56 (≈ 3.34 µM) | 50 (≈ 107 µM) | 0.78 (≈ 1.67 µM) | 0.78 (≈ 1.67 µM) | 0.78 (≈ 1.67 µM) | 0.78 (≈ 1.67 µM) | 0.78 (≈ 1.67 µM) | 0.78 (≈ 1.67 µM) | 50 (≈ 107 µM)
3 | NC[C@H]1O[C@H](O[C@H]2[C@H](O)[C@@H](O)[C@H](N)C[C@@H]2N)[C@H](N)C[C@@H]1O [3'-Deoxyneamine, 3'-deoxyneamine] | > 100 | 6.25 (≈ 20.4 µM) | 100 (≈ 326 µM) | 6.25 (≈ 20.4 µM) | 6.25 (≈ 20.4 µM) | 6.25 (≈ 20.4 µM) | 6.25 (≈ 20.4 µM) | 3.12 (≈ 10.2 µM) | 6.25 (≈ 20.4 µM) | > 100
4 | N[C@@H]1C[C@H](O)[C@@H](CO)O[C@@H]1O[C@H]1[C@H](O)[C@@H](O)[C@H](N)C[C@@H]1N [3'-Deoxyparomamine, 3'-deoxyparomamine] | > 100 | > 100 | 50 (≈ 163 µM) | > 100 | 100 (≈ 325 µM) | > 100 | 100 (≈ 325 µM) | 50 (≈ 163 µM) | > 100 | > 100
5 | NC[C@H]1O[C@H](O[C@H]2[C@H](O[C@@H]3O[C@H](CO)[C@@H](O)[C@H]3O)[C@@H](O)[C@H](N)C[C@@H]2N)[C@H](N)C[C@@H]1O [3'-Deoxyribostamycin, 3'-deoxyribostamycin] | > 100 | 3.12 (≈ 7.12 µM) | > 100 | 6.25 (≈ 14.3 µM) | 6.25 (≈ 14.3 µM) | 3.12 (≈ 7.12 µM) | > 100 | 6.25 (≈ 14.3 µM) | 3.12 (≈ 7.12 µM) | > 100
